The source of these data is US20260137807A1, “COMPOSITIONS AND METHODS FOR DELIVERING A MACROMOLECULE TO A CELL” (AstraZeneca AB, priority 2022, published 2026).

“Also recorded” adds a separate entry of the source.

The test system of data set [1] is HeLa Luc705 cells. The data set is described as follows: Splice switching activity assay (Luc705 luciferase reporter), Example 4A. In kind it is cell-based. The text has this: (§1) HeLa Luc705 and Huh7 Luc705 cells were used to screen and characterize the SMC generated in Example 2 for their ability to increase levels of an SSO-induced splice variant by co-treatment of the cells with the SSO and SMC. The Luc705 reporter construct was used for quantitation of luciferase protein produced as a result of functional SSO delivery. (Kang et al. (1998) Biochemistry, 37(18):6235-6239; Rocha et al. (2016) Four Novel Splice-Switch Reporter Cell Lines: Distinct Impact of Oligonucleotide Chemistry and Delivery Vector on Biological Activity. Nucleic Acid Ther. 26(6):381). Briefly, a plasmid carrying the luciferase coding sequence interrupted by an insertion of intron 2 from β-globin pre-mRNA carrying a cryptic splice site was stably transfected into cells. Unless the aberrant slice site was masked by an antisense oligonucleotide, the pre-mRNA of luciferase was improperly processed.
(§2) HeLa Luc705 and Huh7 Luc705 cells were seeded in 96-well plates at 10,000 cells per well in growth media containing 1 μM Luc705-SSO and incubated to allow adherence and oligo internalization. After 24 hours, 10 μl of SMC diluted in Growth Media (DMEM+10% FBS) was added into each well. After 2 hours, media was removed from the wells and replaced with fresh growth media for 4 hours to allow for translation of the variant proteins. The media was then removed, and cells were lysed with 0.1% Triton-PBS.
(§3) To detect luciferase activity, 30 μL of cell lysate was transferred to white-walled 96-well plates. Luciferase intensity in each well was measured using a GloMax® 96 Microplate Luminometer machine (Promega) following auto-injection of 25 μL Luciferin substrate (Firefly Luciferase Assay System: Promega) per well. Photon measurements were acquired for 10 seconds, starting 2 seconds after injection.
(§4) To determine whether AZ4800 (Compound 2, FIG. 1B) and SSO must be present in the cell media simultaneously for Compound 2 to produce its synergistic effects, the treatment plan was modified from the UNC2383 treatment plan detailed by Wang et al. (2017) ACS Chem. Biol. 12(8):1999-2007 to include a 24 hour pre-treatment with SSO, followed by the addition of Compound 2 for two hours, followed by the removal of SSO and Compound 2, and finally a 4-hour protein translation period (FIG. 10).

For data set [2], the system named is Huh7 Luc705 cells. Described as above. In kind it is cell-based.
Text: as §1, §2, §3, §4

A short description of data set [3]: Nanoparticle tracking analysis (NTA). In kind it is physicochemical. Particulars: 1 μm or 5 μm oligonucleotide incubated with 5 μm AZ4800 for 2 hours. As for the experimental part: Many SSO transfection reagents work through complexation or association with the SSO. A nanoparticle tracking analysis (NTA) was performed to determine whether Compound 2 induced aggregation of oligonucleotides in cell media.
SSO was incubated in cell growth media with and without Compound 2 at 37° C. for 2 hours, mimicking the treatment plan shown in FIG. 10. Analysis was carried out with a Nanosight NS500 instrument running NTA 2.3 analytical software. A script that records 5×30 second videos in light-scatter mode was run with a camera level of 13. Analysis of the videos was then performed with screen gain set to 10 and a detection threshold at 7.

The subject of data set [4] is HEK cells. The data set is described as follows: Co-delivery of ABE8e base editor, GFP reporter. The class given is cell-based. Particulars: 50 nM ABE8e, Compound 4 concentrations above 2.5 μM, FIG. 46B. How it is done: The ABE8e base editor comprising SpCas9 D10A nickase and a modified TadA adenosine deaminase (Richter et al., Nature Biotechnol. 38:883-891 (2020)) was co-administered with Compound 4 to assess improvement in editing efficiency in an in vitro reporter system in which edited cells express GFP. […] The bar shading and lines showing total cell counts, viable cells, and edited cells are the same as in FIG. 43A.
HEK cells were co-administered with a fixed concentration (50 nM) of ABE8e and varying concentrations of AZ3327 (Compound 4). The results in FIG. 46B show greater than 90% editing efficiency at Compound 4 concentrations of above 2.5 μM.
HEK and N2a cells were co-administered with a fixed concentration (2.5 μM) of Compound 4 and varying concentrations of ABE8e.

The subject of data set [5] is T-47D cells. The data set is described as follows: Co-delivery of Cre recombinase, in vitro editing GFP reporter. The class given is cell-based. Particulars: for editing: 50 nM Cre. The text has this: Cre recombinase was co-administered with Compound 4 to assess improvement in editing efficiency in an in vitro reporter system in which edited cells express GFP. Total cell counts are shown as unfilled bars (FIG. 43A, left panel); viable cells are shown in light gray shaded bars (FIG. 43A, middle panel); edited cell counts are shown in green shaded bars, and edited cell percentage is shown as the dotted line (FIG. 43A, right panel).
The media change increased cell viability, as shown by the difference between the left and right panels of FIGS. 43B and 43C. […] Greater than 80% editing was observed when Cre protein was co-administered with 2 μM or 3 μM Compound 4 in the media changed condition, and 3 μM Compound 4 in the media unchanged condition.

Turning to `COc1nn(C2CCNCC2)cc1Nc1ncc(Cl)c(-n2ccc3c(C#N)cccc32)n1` [Compound 2], the “increase in SSO activity” value in data set [1] (1 μM SSO, 10, 5 or 1 μM compound for 2 hours, FIG. 2A) was “substantially higher increase in SSO activity than UNC2383”; in data set [1] (co-treatment up to 5 μM, plateauing after 2 hours, FIG. 11C), 100 fold. For the same compound, the “increase in functional SSO activity” value in data set [1] (5 μM compound, 1 μM SSO or 100 nM SSO, FIG. 2B) is given as “increase in activity”. For the same compound, in data set [1] (SSO only pre-treated, removed when compound added, FIG. 11A), the “SSO activity, preload only” value is reported as “no activity was seen”. In addition, the “increase in SSO activity with lengthened pre-treatment” value in data set [1] (SSO pre-treatment 48 hours instead of 24, FIG. 12A) was “more pronounced”; in data set [2] (SSO pre-treatment 48 hours instead of 24, FIG. 12B), “more pronounced”. The “SSO activity without the pre-treating step” value in data set [1] (no pre-load, FIG. 13A) is given as “significant activity was observed”; in data set [2] (no pre-load, FIG. 13B) it was “significant activity was observed”. The “particle size profile of oligonucleotide in cell growth media” value in data set [3] is on record as “No significant differences in particle size; also recorded: no significant changes in particle size profile”.

Turning to `COc1nn(C2CCNCC2)cc1Nc1ncc(F)c(-n2ccc3c(C#N)cccc32)n1` [Compound 4], the editing efficiency entry in data set [4] is reported as “greater than 90%”; in data set [5] (50 nM Cre protein, 0, 1, 2 or 3 μM compound, FIG. 43B), “improved editing efficiency in T-47D cells in a dose-dependent manner”. The editing entry is “Greater than 80%” in data set [5] (2 μM compound, media changed after 2 hours); “Greater than 80%” in data set [5] (3 μM compound, media changed after 2 hours); “Greater than 80%” in data set [5] (3 μM compound, media unchanged).
